From US12295925B2, “Treatment of neurofibromatosis type 1 (NF1) associated plexiform neurofibromas (PN) in pediatric patients with mirdametinib” (SpringWorks Therapeutics, Inc., priority 2022, dated 2025) come the findings set out here.

This data set deals with patients >2 and <25 years with brain cancer. The experiment in a line: Phase I/II trial of single agent mirdametinib in children, adolescents and young adults with brain cancer. The format is in vivo, human. On the procedure:
Example 1: Phase I/II Evaluation of Single Agent Mirdametinib, a Brain-Penetrant MEK1/2 Inhibitor, for the Treatment of Children, Adolescents, and Young Adults with Brain Cancer A multi-arm phase I/II trial of mirdametinib is to be conducted in patients>2 and <25 years with brain cancer. Phase I requires participants have no prior exposure to MEK inhibitors and recurrent/progressive disease with biopsy-proven evidence of MAPK pathway activation. Three escalating dose levels (2 mg/m^2/dose BID, 2.5 mg/m^2/dose BID and 3 mg/m^2/dose BID) are planned using a rolling 6 design. The median age enrolled in the study is 10 years old (3-21).

As for `O=C(NOC[C@H](O)CO)c1ccc(F)c(F)c1Nc1ccc(I)cc1F` (single isomer, unassigned) [mirdametinib], under “all three dose levels (2, 2.5 and 3 mg/m^2/dose BID), rolling 6 design, patients with brain cancer, median age 10 years”, the dose-limiting toxicities entry is given as “No dose-limiting toxicities”. In addition, the “clinical activity (overall assessment)” value (dosed continuously in patients with brain cancer) is given as “clinically promising”.
